# Data from patent US11419902B2, “Compositions comprising bacterial strains” (4D Pharma Research Limited, priority 2018, dated 2022).
# Assays:
# [1] = tested on: ERK signalling (phosphorylated ERK1 and 2/total ERK); experiment: ERK signalling in HT29 cell line (Western blot); assay type: cell-based; conditions: HT29 (V600E oncogenic mutation)
# Method: Following 24 h treatment with the appropriate drugs either in presence of 10% bacterial supernatant or absence (YCFA+), protein extracts were obtained by lysing cells in RIPA buffer (R0278; Sigma Aldrich) supplemented with protease inhibitors (cOmplete Protease Inhibitor Cocktail Tablets; Roche, Switzerland) and 1 mM/L sodium orthovanadate, 0.5 mM/L PMSF. Protein quantification was done by the BCA protein assay. Equal amounts of total protein (20 μg/lane) were then separated by SDS-PAGE on 4-15% gradient gel (BioRad) and transferred to polyvinylidene difluoride (PVDF) membranes (Thermo Fisher Scientific, Loughborough). […]
# Proteins of interest were detected with the appropriate HRP-conjugated secondary antibody (1:10,000, Thermo Fisher Scientific, Loughborough), developed with the ECL Western blotting Super Signal PicoPlus substrate (34577; Thermo Fisher Scientific, Loughborough), and visualised in Chemidoc XRS Imager (BioRad).
# The effects of the following treatments were assessed on the HT29 colorectal cancer cell line (V600E oncogenic mutation in BRAF): (1) MRx0029; (2) Vemurafenib (VEMU) in YFCA+ medium; (3) VEMU and MRx0029; (4) Azacytidine-C (Aza-c) in YCFA+ medium; (5) Aza-c and MRx0029; (6) VEMU, Aza-c and MRx0029.
# IL-8 = IL-8 secretion by differentiated HT29-mtx cells; assay type: cell-based; conditions: 24 h, vs untreated and YCFA+-treated cells
# Source text: The ability of MRx0029 to cause any intestinal barrier dysfunction was investigated. HT29-mtx epithelial, mucin-producing cell monolayers were used as an in vitro model to evaluate gut barrier disruption and immune stimulation following treatment with MRx0029.
# [2] = tested on: neuron specific enolase (NSE)/enolase 2; experiment: Enolase 2 expression in SH-SY5Y cells (qPCR); assay type: cell-based; conditions: 10% bacterial supernatants 17 h, vs YCFA+ culture control
# Method: SH-SY5Y were plated in 6 well plates at a density of 0.5×10^6 cells. After 24 h, cells were treated in differentiation medium (growth medium containing 1% FBS) with 10% bacterial supernatants or YCFA+ for 17 h. Cells were collected, and total RNA was isolated according to the RNeasy mini kit protocol (Qiagen). cDNA was made using the High Capacity cDNA reverse transcription kit (Applied Biosystems). Gene expression was measured by qPCR. GAPDH was used as internal control. Fold change was calculated according to the 2^(−ΔΔct) method. Primer sets used are listed as SEQ ID NOs: 2, 3, 13 and 14.
# MAP2 = MAP2 gene expression in 451Lu cell line (qPCR); assay type: cell-based; conditions: relative to the cell line only negative control
# Method: Cells were plated in 12-well plates at density of 2×10^5 cells/well. After 24 h cells were treated with either DMSO or Vemurafenib (662005; EMD Millipore; VEMU; SKMEL28, SKMEL31, 451Lu, HT29 (1 μM) SKMEL2 (10 μM) or Azacytidine-C (A3656; Sigma Aldrich; AzaC; 5 μg/ml) or both drugs (VEMU+Aza) together, in presence of 10% bacteria supernatants or absence of it (YCFA+). Total RNA was extracted using the RNeasy mini kit (Qiagen, Manchester, UK) according to the manufacturer's instructions, and the RNA concentration was determined by spectrophotometer at 260/280 nm (NanoDrop ND-1000; Thermo Fisher Scientific, Loughborough). For mRNA expression analysis, cDNA was prepared from 2000 ng of total RNA using the High-Capacity cDNA reverse transcription kit (Thermo Fisher, Loughborough) according to the manufacturer's instructions. The reverse transcription reactions were performed in a thermocycler (Biometra, Germany) at 25° C. for 10 min, 37° C. for 120 min, and 85° C. for 5 min Resulting cDNA was amplified in duplicates by the SYBR-Green PCR assay, and products were detected on QuantStudio 6 flex real-time PCR machine (Applied Biosystems, UK) using a standardised profile (initial denaturation of 95° C. for 10 minutes, followed by 40 cycles of 10 seconds of denaturation at 95° C. and 30 seconds of annealing/extension at 65° C.). […]
# TJP1 and Occludin = experiment: Ex vivo gene expression in the gut of mice fed with MRx0029; conditions: colon region of the murine intestine
# Method: The in vitro results were compared with data from the ex vivo parallel analysis on the gut of mice fed with MRx0029. Gene expression of TJP1 and Occludin was quantified in the colon and ileum. […] Animals were allowed to habituate to their holding room for one week after arrival into the animal unit. They receive oral gavage (200 μL dose) of live biotherapeutics at a dose of 1×10^9 CFU for 6 consecutive days between 15:00 and 17:00. On day 7, the animals are decapitated, and tissues are harvested for experimentation. Animals were sacrificed in a random fashion regarding treatment and testing condition; sampling occurred between 9.00 a.m. and 2:30 p.m. Trunk blood was collected in potassium EDTA (Ethylene Diamine Tetra Acetic Acid) tubes and spun for 15 min at 4000 g. Plasma was isolated and stored at −80° C. for further analysis. The brain was quickly excised, dissected and each brain region was snap-frozen on dry ice and stored at −80° C. for further analysis. Spleen was removed, collected in 5 mL RPMI media (with L-glutamine and sodium bicarbonate, R8758 Sigma+10% FBS (F7524, Sigma)+1% Pen/Strep (P4333, Sigma)) and processed immediately after culls for ex-vivo immune stimulation. […]
substance,measurement,setting,value
Megasphaera massiliensis MRx0029,ERK signalling,[1],inhibiting ERK signalling
same,secretion of IL-8,IL-8,even lower secretion of IL-8
same,Enolase 2 expression,[2],statistically-significant effect of suppressing
same,MAP2 gene expression,MAP2,increased MAP2 gene expression
same,TJP1 gene expression in the colon,TJP1 and Occludin,significantly up-regulate
